Experimental data taken from patent US20250154163A1, “Pyrimidinone-Containing 17-Beta-Hydroxysteroid Dehydrogenase Type 13 Inhibitors” (ENANTA PHARMACEUTICALS, INC., priority 2023, published 2025).

Test system: human precision cut lung slices from a donor with idiopathic pulmonary fibrosis
Assay: Human precision cut lung slice (PCLS) culture, donor with idiopathic pulmonary fibrosis
Type: cell-based
Conditions: IPF donor PCLS; FIG. 2b
Experimental: Human PCLS were generated from lung explants of patients with pulmonary fibrosis (donor ID #221028) or normal donor (donor ID #220730). Cryopreserved hPCLSs were obtained from Institute for In Vitro Sciences (IIVS) and maintained with air-liquid interface culture approach under 37° C., 5% CO2 and 95% humidity. hPCLS were cultured in DMEM-F12 (Invitrogen, Cat No. 11330032) containing 0.2% primocin (Invivogen, Cat No. ant-pm-1) and 1% insulin-transferrin-selenium (ITS-G; Invitrogen, Cat No. 41400045), after initial acclimation in acclimation media, including culture media supplemented with 1% antibiotic antimycotic solution (Invitrogen, Cat No. 15240062), 2 mM Hydrocortisone (Millipore Sigma,) and 5 mg/ml 2-phospho-L-abscorbic acid trisodium salt (Millipore Sigma, Cat No. 49752-10G) for 3 days. Slices of tissue were flatly grown in the tissue culture inserts with 0.4 μm pores of a 12-well plate (StemCell Technologies, Cat No. 1001027), supplemented with 100 μl culture media in the apical side containing PCLSs, and 900 μL culture media in the basal compartment. Media were changed every 48 hours. hPCLS were treated and randomly assigned in replicates of 6-8 per condition 7 days after recovery from cryopreservation. […] IPF donor PCLS were collected at day 8 for subsequent RNA isolation and gene expression quantification. […]

## COc1ccc(-c2nc3sc4c(O)c(Cl)ccc4c3c(=O)n2Cc2cnco2)c(C2CC2)c1 [Example 26, 7-chloro-2-(2-cyclopropyl-4-methoxyphenyl)-8-hydroxy-3-(oxazol-5-ylmethyl)benzo[4,5]thieno[2,3-d]pyrimidin-4(3H)-one]
  secreted fibronectin (lung fibronectin content): decreased
